From US20240025880A1 (CHIESI FARMACEUTICI S.P.A., priority 2020, published 2024) come the findings set out here.

For one assay, the target named is T1, h P2X3 (Homo sapiens, UniProt P56373).
T1 sequence (P56373 1-397): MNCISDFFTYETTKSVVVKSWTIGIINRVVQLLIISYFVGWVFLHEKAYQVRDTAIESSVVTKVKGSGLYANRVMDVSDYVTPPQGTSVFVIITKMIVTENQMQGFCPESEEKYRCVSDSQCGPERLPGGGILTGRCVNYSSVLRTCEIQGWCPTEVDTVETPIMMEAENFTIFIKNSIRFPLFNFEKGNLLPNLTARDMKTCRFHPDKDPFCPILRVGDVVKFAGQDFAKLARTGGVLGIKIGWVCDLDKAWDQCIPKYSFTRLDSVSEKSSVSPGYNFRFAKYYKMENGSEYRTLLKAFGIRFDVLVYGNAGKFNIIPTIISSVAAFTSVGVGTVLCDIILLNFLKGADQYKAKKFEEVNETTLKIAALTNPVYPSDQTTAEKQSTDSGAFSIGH
The assay is described as follows: In vitro electrophysiology assay for P2X3 (automated whole-cell patch clamp, α,β-MeATP agonist). The class given is cell-based. As for the experimental part: In Vitro Electrophysiology Assay for P2X3
(§1) Cells expressing P2X3 receptors were grown according to standard practice and maintained at 37° C. in a 5% humidified CO2 atmosphere. The cells were seeded into T175 flask 2 days prior to the day of the assay and dissociated from the flasks using TrypLE when grown to confluence of 80-90%. The dissociated cells were resuspended in serum free media at a cell density of 3×10^6 cells/ml and loaded onto the Sophion Qube automated patch-clamp system. The extracellular assay buffer contained 145 mM NaCl, 4 mM KCl, 2 mM CaCl2, 1 mM MgCl2, 10 mM HEPES, and 10 mM glucose at pH 7.4. The intracellular assay solution contained 140 mM CsF, 10 mM NaCl, 10 mM EGTA, 10 mM HEPES at pH 7.2. Agonist stock solutions were prepared in H2O and diluted in bath solution prior to use. All antagonists were prepared as 10 mM stock solutions in DMSO and diluted in bath solution prior to use. All experiments were performed under the whole-cell patch clamp configuration at room temperature with 384 individual cells being voltage clamped at −60 mV simultaneously on the Sophion Qube instrument. Two baseline responses were established with the application of α,β-MeATP (800 nM), with the subsequent agonist applications being washed out using extracellular assay buffer containing 0.5 U/ml apyrase. Following the second agonist application, antagonist was incubated in the absence of α,β-MeATP for 10 minutes. After antagonist preincubation, 800 nM α,β-MeATP and antagonist were co-administered to determine the inhibitory effect of the antagonist. One concentration of an antagonist was assessed against a single cell, with different concentrations of the antagonist applied to other cells on the 384 recording substrate. The control P2X3 current amplitude was taken from the peak current amplitude from the second agonist response prior to preincubation with antagonist. The peak P2X3 current amplitude in the presence of antagonist was used to calculate the inhibitory effect at each concentration of the antagonist according to the following equation:
Percentage inhibition of P2X3=(P2X3 control peak amplitude−P2X3 antagonist peak amplitude)/P2X3 control peak amplitude)*100
Concentration-response curves were constructed from ten different concentrations with each concentration of antagonist tested on at least two individual cells. The concentration of the antagonist to inhibit P2X3 current by 50% (IC50) was determined by fitting the data with the following equation:
Y=a+[(b−a)/(1+10^((log c−x)d)]
Where ‘a’ is minimum response, ‘b’ is maximum response, ‘c’ is IC50 and ‘d’ is Hill slope.
(In general: Patch clamp records ionic current or voltage across a cell membrane.)

Another assay concerns the target T2, h P2X2/3 (Homo sapiens, UniProt P56373+Q9UBL9).
T2 construct: host or cells: cells not described; same protocol as the P2X3 assay
T2 sequence (P56373 1-397): T1 sequence (P56373 1-397)
T2 sequence (Q9UBL9 1-471): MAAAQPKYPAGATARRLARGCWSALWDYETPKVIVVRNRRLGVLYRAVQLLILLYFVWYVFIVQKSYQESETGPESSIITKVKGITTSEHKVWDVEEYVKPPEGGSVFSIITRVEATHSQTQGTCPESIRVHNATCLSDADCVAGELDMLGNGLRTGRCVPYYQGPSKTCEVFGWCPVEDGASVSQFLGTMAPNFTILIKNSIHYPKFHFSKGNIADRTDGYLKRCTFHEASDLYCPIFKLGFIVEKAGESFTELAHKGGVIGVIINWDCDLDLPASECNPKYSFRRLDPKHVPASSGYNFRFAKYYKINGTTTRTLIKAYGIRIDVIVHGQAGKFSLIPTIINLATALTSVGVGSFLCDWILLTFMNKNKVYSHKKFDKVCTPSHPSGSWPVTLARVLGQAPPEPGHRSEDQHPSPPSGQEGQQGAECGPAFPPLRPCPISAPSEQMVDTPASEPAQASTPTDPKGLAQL
Kind of assay: In vitro electrophysiology assay for P2X2/3 (same protocol, 10 μM ATP agonist). The class given is cell-based. To be noted: Table 3, mean current seven seconds after agonist, read-out: h P2X2/3 (pIC50 range of activity) (converted). As for the experimental part:
as §1, with “equation: […]” for “equation:”
In vitro Electrophysiology Assay for P2X2/3
Representative compound of the present invention have been also tested for P2X2/3 receptor.
The same assay protocol was used for the P2X2/3 assay as the P2X3 assay with two modifications: 1) 10 μM ATP was used as the agonist; and 2) the mean current amplitude was measured seven seconds after the application of agonist.

The mark [1] stands for this setting: Table 2, 800 nM α,β-MeATP, peak current, read-out: h P2X3 (pIC50 range of activity) (converted).
The mark [2] stands for this setting: Table 3, 800 nM α,β-MeATP, peak current, read-out: h P2X3 (pIC50 range of activity) (converted).

Structures are written as SMILES. Read-outs that look alike come from different tables or passages of the source.

With `Cc1nnc(C(C)Nc2ncnc3c(OCC(F)F)cc(-c4ccc(F)cn4)cc23)s1` (single isomer, unassigned; enantiomer 1) [Example 6, Single enantiomer 1 of 8-(2,2-difluoroethoxy)-6-(5-fluoro-2-pyridyl)-N-[1-(5-methyl-1,3,4-thiadiazol-2-yl)ethyl]quinazolin-4-amine], the IC50 at h P2X3 (setting [1]) is under 316 nM; on h P2X3 (setting [2]), under 316 nM; on h P2X2/3, 3160 to 31600 nM.
In the case of `Cc1nc([C@@H](C)Nc2ncnc3c(S(=O)(=O)N(C)C)cc(-c4ccc(F)cc4)cc23)no1` (stereo in doubt) [Example 15, 6-(4-fluorophenyl)-N,N-dimethyl-4-((1-(5-methyl-1,2,4-oxadiazol-3-yl)ethyl)amino)quinazoline-8-sulfonamide], the figures for the IC50 on h P2X3 (setting [1]), on h P2X3 (setting [2]) and on h P2X2/3 were under 316 nM, under 316 nM and 316 to 3160 nM, respectively.
Consider `Cc1ccc(CNc2ncnc3c(OCC(F)F)cc(-c4ccc(F)cc4)cc23)nn1` [Example 1, 8-(2,2-difluoroethoxy)-6-(4-fluorophenyl)-N-((6-methylpyridazin-3-yl)methyl)quinazolin-4-amine], for which the figures for the IC50 at h P2X3 (setting [1]), on h P2X3 (setting [2]) and on h P2X2/3 were under 316 nM, under 316 nM and 3160 to 31600 nM, respectively.
Take `C[C@@H](Nc1ncnc2c(OCC(F)F)cc(-c3ccc(F)cc3)cc12)c1cnc(C(F)(F)F)nc1` [Example 2, (R)-8-(2,2-difluoroethoxy)-6-(4-fluorophenyl)-N-(1-(2-(trifluoromethyl)pyrimidin-5-yl)ethyl)quinazolin-4-amine]: the IC50 at h P2X3 (setting [1]) is under 316 nM; at h P2X3 (setting [2]) it was under 316 nM; at h P2X2/3, 316 to 3160 nM.
Regarding `Cc1cnc(-c2cc(OCC(F)F)c3ncnc(NCc4ccc(C)nn4)c3c2)nc1` [Example 9, 8-(2,2-difluoroethoxy)-N-[(6-methylpyridazin-3-yl)methyl]-6-(5-methylpyrimidin-2-yl)quinazolin-4-amine], the IC50 was under 316 nM at h P2X3 (setting [1]), under 316 nM on h P2X3 (setting [2]) and 316 to 3160 nM on h P2X2/3.
In the case of `Cc1ccc([C@@H](C)Nc2ncnc3c(S(=O)(=O)N4CCC(F)(F)C4)cc(-c4ccc(F)cc4)cc23)nn1` [Example 16], the IC50 at h P2X3 (setting [1]) is under 316 nM; at h P2X3 (setting [2]) it was under 316 nM; at h P2X2/3, 316 to 3160 nM.
For `Cc1nc([C@@H](C)Nc2ncnc3c(S(=O)(=O)N4CCC(F)(F)C4)cc(-c4ccc(F)cc4)cc23)no1` [Example 17, (R)-8-((3,3-difluoropyrrolidin-1-yl)sulfonyl)-6-(4-fluorophenyl)-N-(1-(5-methyl-1,2,4-oxadiazol-3-yl)ethyl)quinazolin-4-amine], the results for the IC50 on h P2X3 (setting [1]), at h P2X3 (setting [2]) and at h P2X2/3 were under 316 nM, under 316 nM and 316 to 3160 nM, respectively.
Turning to `CNS(=O)(=O)c1cc(-c2ccc(F)cc2)cc2c(N[C@H](C)c3ccc(C)nn3)ncnc12` [Example 21, (R)-6-(4-fluorophenyl)-N-methyl-4-((1-(6-methylpyridazin-3-yl)ethyl)amino)quinazoline-8-sulfonamide], the IC50 at h P2X3 (setting [1]) is under 316 nM; on h P2X3 (setting [2]) it was under 316 nM; at h P2X2/3, 3160 to 31600 nM.
In the case of `CNS(=O)(=O)c1cc(-c2ccc(F)cc2)cc2c(N[C@H](C)c3noc(C)n3)ncnc12` [Example 22, (R)-6-(4-fluorophenyl)-N-methyl-4-((1-(5-methyl-1,2,4-oxadiazol-3-yl)ethyl)amino)quinazoline-8-sulfonamide], the IC50 on h P2X3 (setting [1]) was under 316 nM; at h P2X3 (setting [2]) it was under 316 nM; on h P2X2/3, 3160 to 31600 nM.
As for `Cc1ccc([C@@H](C)Nc2ncnc3c([S+](C)[O-])cc(-c4ccc(F)cc4)cc23)nn1` (stereo partly drawn) [Example 27, 6-(4-fluorophenyl)-N-((R)-1-(6-methylpyridazin-3-yl)ethyl)-8-(methylsulfinyl)quinazolin-4-amine], the results for the IC50 on h P2X3 (setting [1]), on h P2X3 (setting [2]) and on h P2X2/3 were under 316 nM, under 316 nM and 316 to 3160 nM, respectively.
On to `C[C@@H](Nc1ncnc2c(OC3CCNC3=O)cc(-c3ccc(F)cc3)cc12)c1cnc(C(F)(F)F)nc1` (stereo partly drawn) [Example 34, 3-((6-(4-fluorophenyl)-4-(((R)-1-(2-(trifluoromethyl)pyrimidin-5-yl)ethyl)amino)quinazolin-8-yl)oxy)pyrrolidin-2-one], for which the IC50 at h P2X3 (setting [1]) is under 316 nM; at h P2X3 (setting [2]) it was under 316 nM; on h P2X2/3, 316 to 3160 nM.
Take `COC(=O)C1(NC(=O)COc2cc(-c3ccc(F)cc3)cc3c(NCc4ccc(C)nn4)ncnc23)CC1` [Example 42, Methyl 1-(2-((6-(4-fluorophenyl)-4-(((6-methylpyridazin-3-yl)methyl)amino)quinazolin-8-yl)oxy)acetamido)cyclopropane-1-carboxylate]: the IC50 on h P2X3 (setting [1]) was 316 to 3160 nM; at h P2X3 (setting [2]) it was 316 to 3160 nM; at h P2X2/3 it was 3160 to 31600 nM.
For `O=C(NC1CCOc2ccc(-c3ccc(F)cc3)cc21)c1cnc(C(F)(F)F)nc1` (stereo not shown) [comparative Example A, N-(6-(4-fluorophenyl)chroman-4-yl)-2-(trifluoromethyl)pyrimidine-5-carboxamide, reference compound], the IC50 at h P2X3 (comparative example, read-out: activity on receptor P2X3 expressed as pIC50 (converted)) is over 31600 nM.
